Experimental data as given in patent US20120226036A1, “S[…] COMPOUND” (UBE INDUSTRIES, LTD., priority 2009, published 2012).

Target: T1, human EP2 receptor (Homo sapiens, UniProt P43116)
T1 construct: host or cells: HEK293
Assay: Measurement of EP2 receptor binding action ([3H]prostaglandin E2 displacement, membrane fraction of HEK293 cells)
Details: tested as active form (R1 = hydroxy group) of the example compound; [3H]prostaglandin E2 10 nM, 60 minutes at 30° C.
Procedure: Measurement of EP2 receptor binding action was carried out in compliance with the method of Abramovitz et al. (Biochimica et Biophysica Acta, 1483, 285 (2000)). A test compound (a compound wherein R^1 in the compound represented by the formula (I) of the present invention is a hydroxy group) dissolved in dimethylsulfoxide and [^3H]prostaglandin E2 (NET-428, available from PerkinElmer) (final concentration: 10 nM) were added to a buffer solution (10 mM MES-KOH (pH 6.0), 10 mM MgCl2, 1 mM EDTA) in which was suspended 10 μg of a membrane fraction of HEK293 cells expressing human EP2 receptor (ES-562-M, available from Euroscreen) followed by incubating for 60 minutes at 30° C. The membrane fraction was recovered on glass fiber filter paper (GF/B, available from Whatmann) using a cell harvester (M30R, Brandel), and after washing with a buffer solution (10 mM MES-KOH (pH 6.0), 10 mM MgCl2), radioactivity was measured with a liquid scintillation analyzer (2000CA, Packard).
Ki=IC50/(1+([^3H]prostaglandin E2 concentration/Kd))
The dissociation constant (Kd value) was calculated by Scatchard analysis.

T1 sequence (P43116 whole entry): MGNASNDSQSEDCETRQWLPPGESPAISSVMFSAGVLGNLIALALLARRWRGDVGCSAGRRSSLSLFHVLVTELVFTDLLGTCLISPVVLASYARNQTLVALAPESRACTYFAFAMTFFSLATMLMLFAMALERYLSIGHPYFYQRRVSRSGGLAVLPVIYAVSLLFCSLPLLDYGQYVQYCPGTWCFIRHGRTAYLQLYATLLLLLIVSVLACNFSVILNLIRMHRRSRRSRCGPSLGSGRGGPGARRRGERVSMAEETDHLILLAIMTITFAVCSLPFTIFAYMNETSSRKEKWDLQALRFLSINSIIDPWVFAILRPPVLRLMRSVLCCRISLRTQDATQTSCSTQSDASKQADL

Substance	Ki [nM]
(2,2,2-Trifluoroethyl)(6-{[4-(pyrazol-1-yl)benzyl](pyridin-3-ylsulfonyl)aminomethyl}-pyridin-2-ylamino)acetate [Example 11]	13
(5-Phenylpentyl)(6-{(pyridin-2-ylsulfonyl)[4-(thiazol-2-yl)benzyl]aminomethyl}-pyridin-2-ylamino)acetate [Example 1]	1.9
